Test results as given in paper PMC12730265, “Combinatorial Antimicrobial Effects of Imidazolium-Based Ionic Liquids and Antifungals on Model Fungal Organisms” (Biomolecules, 2025).
Where two headings read alike, the source gives them in different places.

Columns and labels:
C. albicans [1] = assay: Kirby–Bauer disk diffusion assay on IL-containing YPD plates; type: cell-based
Protocol: Assessment of fungal growth on YPD plates with AFs + ILs served as an indicator for the combined efficacy of treatment of ILs and AFs. YPD agar plates were made with addition of increasing concentrations of [HMIM]Cl at 0, 2.5, 6.25, and 25 mM or [OMIM]Cl at 0, 0.25, 0.625, and 2.5 mM. Plates solidified and dried on bench for 24 h before use. IN total, 400 μL of S. cerevisiae or C. albicans liquid culture at mid-log phase OD600 0.5 was spread using sterile glass beads to achieve even distribution. Following addition of culture, the plates were allowed to dry for 30 min before the addition of antifungal disks. Antifungal-infused disks were prepared using the stock solutions of solubilized antibiotics; 15 μL of each of the 4 azole antifungals at stock concentrations was pipetted onto a sterile 6 mm cellulose disk (BD). […] After plate drying was complete, sterile forceps were used to transfer the disks to the media, and the plate was grown upright in an incubator overnight at 30 °C. The following day, photographs were taken of the plates to visualize the zone of inhibition (ZOI) created by the combined treatment. Adobe Illustrator 2023 CC was used to perform digital measurements of ZOI diameters.
To assess the potential for combinatorial effects of ILs and AFs in yeast, Kirby–Bauer disk diffusion assays were performed for C. albicans and S. cerevisiae for [HMIM]Cl and [OMIM]Cl with all four AFs. […] The addition of 6 mm cellulose disks infused with equal volumes of solubilized AFs to the plates occurred after plating of C. albicans or S. cerevisiae, allowing for growth for 48 h at 23 °C, at which point the plates were evaluated for the establishment of zones of inhibition (ZOI). Digital pictures were acquired of all plates, and measurements of ZOI diameter were performed digitally as described in the Methods. […] With progressively increasing amounts of both [HMIM]Cl and [OMIM]Cl, ZOIs increased for all Afs, including Fluconazole and Itraconazole, which appear to be ineffective without IL in the Kirby–Bauer disk assay. Experiments were performed in triplicate and ZOIs were measured for all plates.

C. albicans [2] = assay: Checkerboard assay IL + Clotrimazole, growth on YPD plate post-treatment (fungicidal); type: cell-based; details: for average growth, visually scored (2 full, 1 interrupted, 0 no growth): [HMIM]Cl 0 mM
Protocol: C. albicans was grown overnight in YPD liquid media at 30 °C, at which point it was diluted into 10 mL of YPD media at 0.1 OD600 and was grown to mid-log phase 0.5 OD600 and subsequently diluted to 5 × 10^3 CFU/mL cells in YPD of which 180 μL of culture was distributed into a 96-well round-bottom culture dish. To this dish, 20 μL of IL, AF, or IL + AF was added to each well at concentrations indicated in each experiment. These culture plates were grown in an incubator shaker for 48 h at 30 °C, at which point the cultures were mixed by pipetting and then spotted onto YPD solid plates and allowed to grow for an additional 48 h. After 48 h, plates were visually scored for no growth (0), 50% growth (1), or 100% growth relative to PBS control (2). Experiments were performed in triplicate, and scores were averaged per well.
In order to evaluate if the same combinatorial effect was present in liquid culture and furthermore to identify the specific concentrations at which a combined effect may be present, checkerboard assays were performed. […] These assays were completed in triplicate for both [HMIM]Cl and [OMIM]Cl with the addition of Clotrimazole on C. albicans. In this assay, both IL and AF were loaded into a 96-well plate YPD liquid culture plate in double serial dilutions with decreasing IL from top to bottom and decreasing AF from left to right. Each well represents a different final concentration of both drugs in combination. Growth of the target microorganism was measured as growth in liquid media by OD600 nm, representing fungistatic interactions and [2] growth on a YPD plate post-treatment as fungicidal (Figure 4).
Checkerboard assays were performed in 96-well plates with Clotrimazole + [HMIM]Cl or [OMIM]Cl on C. albicans. These culture plates were grown in an incubator shaker for 48 h at 23 °C, and thereafter C. albicans was mixed by pipetting and then spotted onto YPD solid plates and allowed to grow for an additional 48 h. After 48 h, plates were visually scored for no growth (0), 50% growth (1), or 100% growth relative to PBS control (2). Experiments were performed in triplicate, and scores were averaged per well. […] We measured this by calculating the fractional inhibitory concentration (FIC) score ((MIC50 IL + AF)/(MIC50 AF)) + ((MIC50 IL + AF)/(MIC50 IL)). In this well-established measure of combined interactions, a score < 0.5 indicated synergistic interaction, 0.5–4 potential combinatorial interaction or no effect, and >4 antagonistic interaction.

HeLa cells = assay: CellTiter-Blue cytotoxicity assay; type: cell-based, human; details: for EC50: Homo sapiens, HeLa, read-out: EC50 (50% viability)
Protocol: EC50 and FIC calculations were performed using these treatments.
To understand the degree to which imidazolium chloride-based ILs of varying chain length are toxic to human cells, we treated HeLa cells with [HMIM]Cl or [OMIM]Cl with each of the four azole AFs for 24 h and evaluated cytotoxicity. Following 24 h of exposure in liquid culture at defined serial dilutions in a 96-well plate format, cells were evaluated for viability using CellTiter-Blue assay in which living cells can metabolize resazurin into resorufin, a fluorescent reporter molecule detected by plate spectroscopy. Consistent with findings for bacteria and yeast microorganisms, high concentrations of imidazolium chloride-based ILs are toxic to HeLa cells (Figure 6B). Moreover, HeLa cells treated with ILs with longer alkyl chain lengths [OMIM]Cl are less viable than when treated with [HMIM]Cl at the same final concentration. […] With respect to all four AFs, the degree of specificity for these drugs to fungi vs. human cells was clear (Figure 6B).

[3] = in combination with Clotrimazole 4 mg/L

SMILES: Clc1ccccc1C(c1ccccc1)(c1ccccc1)n1ccnc1 [Clotrimazole]
- Zone of inhibition (ZOI) diameter (C. albicans [1]; [HMIM]Cl 0 mM in plate): 10 mm
- Zone of inhibition (ZOI) diameter (C. albicans [1]; [HMIM]Cl 2.5 mM in plate): 10.33 mm
- Zone of inhibition (ZOI) diameter (C. albicans [1]; [HMIM]Cl 6.25 mM in plate): 25.67 mm
- Zone of inhibition (ZOI) diameter (C. albicans [1]; [HMIM]Cl 25 mM in plate): 30.67 mm
- Zone of inhibition (ZOI) diameter (C. albicans [1]; [OMIM]Cl 0 M in plate): 10 mm
- Zone of inhibition (ZOI) diameter (C. albicans [1]; [OMIM]Cl 0.25 mM in plate): 11 mm
- Zone of inhibition (ZOI) diameter (C. albicans [1]; [OMIM]Cl 0.625 mM in plate): 23.33 mm
- Zone of inhibition (ZOI) diameter (C. albicans [1]; [OMIM]Cl 2.5 mM in plate): 44.67 mm
- inhibition of C. albicans growth around disk (C. albicans [1]; absence of added IL): minimal inhibition
- average growth, visually scored (2 full, 1 interrupted, 0 no growth) (C. albicans [2]; Clotrimazole 0.1 mg/L): 2
- average growth, visually scored (2 full, 1 interrupted, 0 no growth) (C. albicans [2]; Clotrimazole 0.25 mg/L): 2
- average growth, visually scored (2 full, 1 interrupted, 0 no growth) (C. albicans [2]; Clotrimazole 0.5 mg/L): 2
- average growth, visually scored (2 full, 1 interrupted, 0 no growth) (C. albicans [2]; Clotrimazole 1 mg/L): 2
- average growth, visually scored (2 full, 1 interrupted, 0 no growth) (C. albicans [2]; Clotrimazole 2 mg/L): 1.67
- average growth, visually scored (2 full, 1 interrupted, 0 no growth) (C. albicans [2]; Clotrimazole 4 mg/L): 1.33
- average growth, visually scored (2 full, 1 interrupted, 0 no growth) (C. albicans [2]; Clotrimazole 8 mg/L): 1
- average growth, visually scored (2 full, 1 interrupted, 0 no growth) (C. albicans [2]; Clotrimazole 15 mg/L): 1
- average growth, visually scored (2 full, 1 interrupted, 0 no growth) (C. albicans [2]; Clotrimazole 31 mg/L): 1
- average growth, visually scored (2 full, 1 interrupted, 0 no growth) (C. albicans [2]; Clotrimazole 62 mg/L): 0.67
- average growth, visually scored (2 full, 1 interrupted, 0 no growth) (C. albicans [2]; Clotrimazole 125 mg/L): 0.67
- average growth, visually scored (2 full, 1 interrupted, 0 no growth) (C. albicans [2]; Clotrimazole 250 mg/L): 0.33
- Clotrimazole concentration at 50% growth (C. albicans [2]; with 0.39 mM [OMIM]Cl): 4 mg/L
- Clotrimazole concentration at 50% growth (C. albicans [2]; with 1.562 mM [HMIM]Cl): 4 mg/L

SMILES: CCCCCCn1cc[n+](C)c1.[Cl-] [[HMIM]Cl, 1-hexyl-3-methylimidazolium chloride]
- IL concentration at 50% growth (MIC50 used for FIC) (C. albicans [2]; IL alone, fungicidal checkerboard): 6250 µM
- antifungal effect of IL without Clotrimazole (C. albicans [2]; [HMIM]Cl 12.5 mM): not completely fungicidal
- IL concentration at 50% growth (MIC50 used for FIC) (C. albicans [2]; [3]): 1562 µM
- toxicity on HeLa cells (HeLa cells; 1.563 mM [HMIM]Cl): low levels of toxicity
- EC50 (HeLa cells; 24 h): 14.1 mM

SMILES: CCCCCCCCn1cc[n+](C)c1.[Cl-] [[OMIM]Cl, 1-octyl-3-methylimidazolium chloride]
- antifungal effect of IL without Clotrimazole (C. albicans [2]; [OMIM]Cl 6.25 mM): not completely fungicidal
- IL concentration at 50% growth (MIC50 used for FIC) (C. albicans [2]; [3]): 390 µM
- EC50 (HeLa cells; 24 h exposure): 1.11 mM
